According to paper PMC6609562, “A new split‐luciferase complementation assay identifies pentachlorophenol as an inhibitor of apoptosome formation” (FEBS Open Bio, 2019):
Where two headings read alike, the source gives them in different places.

Experiments:
[1] = system: T1, apoptosome (Nluc/Apaf-1 + Cluc/Apaf-1, cytochrome c, dATP); experiment: split-luciferase complementation in S-100 extract; type: biochemical, Homo sapiens; settings: 1.6 uM cytochrome c, 1 mM dATP, 25 °C; unreliable (reporter interference)
T1 construct: gene APAF1; Apaf-1 XL fused by Gly/Ser linker to firefly luciferase fragments (Nluc 1-416; Cluc 394-550 in legend, 395-550 in methods), expressed in HEK 293, S-100 extract
Description: split-luciferase complementation in S-100 extract on apoptosome (Nluc/Apaf-1 + Cluc/Apaf-1, cytochrome c, dATP)

[2] = system: T1, apoptosome (Nluc/Apaf-1 + Cluc/Apaf-1, cytochrome c, dATP); experiment: split-luciferase complementation in S-100 extract; type: biochemical, Homo sapiens
[3] = system: T2, cytochrome c; experiment: thermal stability shift, soluble protein by Coomassie SDS-PAGE; type: binding; settings: destabilization at 58 °C, 1 mg/mL cytochrome c
T2 construct: gene CYCS

[4] = molecular target: T3, Cluc-Apaf1 (Apaf-1 XL fused to the C-terminal fragment of firefly luciferase) (human), O14727; experiment: split reporter (BiFC, NanoBiT); split firefly luciferase complementation; ice-cold S-100 extracts of Nluc-Apaf1 and Cluc-Apaf1 cells mixed 1:1, with and without 1.6 μM cytochrome c and 1 mM dATP (cytochrome c titrated in one experiment); One-Glo Luciferase Assay System, light read at 25 °C over 15 min; settings: remark: other sources report otherwise
T3 chain: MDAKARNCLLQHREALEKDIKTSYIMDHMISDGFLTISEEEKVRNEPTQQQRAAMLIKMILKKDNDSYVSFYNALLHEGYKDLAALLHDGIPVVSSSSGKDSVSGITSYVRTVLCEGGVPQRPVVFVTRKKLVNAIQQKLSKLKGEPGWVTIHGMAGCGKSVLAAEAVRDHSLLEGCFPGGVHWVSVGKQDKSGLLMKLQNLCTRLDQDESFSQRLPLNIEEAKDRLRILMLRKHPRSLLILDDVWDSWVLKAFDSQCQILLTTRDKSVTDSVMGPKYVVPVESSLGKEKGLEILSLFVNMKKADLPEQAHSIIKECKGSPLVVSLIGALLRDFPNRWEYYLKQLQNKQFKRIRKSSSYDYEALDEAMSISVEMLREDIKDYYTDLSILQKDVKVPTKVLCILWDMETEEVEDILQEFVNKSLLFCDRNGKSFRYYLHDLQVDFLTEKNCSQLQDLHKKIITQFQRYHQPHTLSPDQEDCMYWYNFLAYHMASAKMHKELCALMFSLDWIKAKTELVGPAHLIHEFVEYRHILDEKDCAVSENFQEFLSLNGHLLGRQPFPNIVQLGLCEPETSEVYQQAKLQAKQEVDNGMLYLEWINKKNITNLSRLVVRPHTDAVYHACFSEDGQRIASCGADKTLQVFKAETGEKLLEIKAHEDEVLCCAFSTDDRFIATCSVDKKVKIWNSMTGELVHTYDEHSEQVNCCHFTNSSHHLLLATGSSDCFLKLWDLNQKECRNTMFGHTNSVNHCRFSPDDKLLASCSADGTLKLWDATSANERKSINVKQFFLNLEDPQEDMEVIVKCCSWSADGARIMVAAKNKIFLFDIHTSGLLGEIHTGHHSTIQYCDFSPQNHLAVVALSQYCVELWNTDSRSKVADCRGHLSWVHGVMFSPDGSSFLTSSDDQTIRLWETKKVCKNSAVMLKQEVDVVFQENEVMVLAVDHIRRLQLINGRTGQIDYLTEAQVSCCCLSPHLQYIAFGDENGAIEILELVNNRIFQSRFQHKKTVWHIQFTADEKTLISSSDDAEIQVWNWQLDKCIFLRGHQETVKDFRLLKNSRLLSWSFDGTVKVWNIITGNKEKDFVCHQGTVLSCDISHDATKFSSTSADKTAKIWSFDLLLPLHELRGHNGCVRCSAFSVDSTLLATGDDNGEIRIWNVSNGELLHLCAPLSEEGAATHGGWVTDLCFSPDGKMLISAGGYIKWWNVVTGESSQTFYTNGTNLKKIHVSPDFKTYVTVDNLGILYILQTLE

## CN(C)C(=S)SSC(=S)N(C)C [Thiram]
[1]
  IC50 (mM) / S. luc: 1.38 mM

## O=C(Nc1cccc(C(F)(F)F)c1)Nc1cc(Cl)ccc1C(=O)O [NS3694, 4‐chloro‐2‐[[3‐(trifluoromethyl)phenyl]carbamoylamino]benzoic acid]
[2]; diluted extract, cytochrome c and dATP added, read-out: IC50
  IC50: ~0.17 mM

## Clc1nc(Cl)nc(Nc2ccccc2Cl)n1 [Anilazine]
[1]
  IC50 (mM) / S. luc: 2.99 mM

## Oc1c(Cl)c(Cl)c(Cl)c(Cl)c1Cl [Pentachlorophenol]
[2]; 1.6 uM cytochrome c, 1 mM dATP, 25 °C, site assigned to cytochrome c, read-out: IC50 (mM) / S. luc
  IC50: 0.17 mM
[3]
  EC50: ~600 µM

## CN(C)C1CSSSC1 [Thiocyclam]
[1]
  IC50 (mM) / S. luc: 0.20 mM

B1: Nluc-Apaf1 (Apaf-1 XL fused to the N-terminal fragment of firefly luciferase), O14727-1 1-1248 (natural protein)
chain: MDAKARNCLLQHREALEKDIKTSYIMDHMISDGFLTISEEEKVRNEPTQQQRAAMLIKMILKKDNDSYVSFYNALLHEGYKDLAALLHDGIPVVSSSSGKDSVSGITSYVRTVLCEGGVPQRPVVFVTRKKLVNAIQQKLSKLKGEPGWVTIHGMAGCGKSVLAAEAVRDHSLLEGCFPGGVHWVSVGKQDKSGLLMKLQNLCTRLDQDESFSQRLPLNIEEAKDRLRILMLRKHPRSLLILDDVWDSWVLKAFDSQCQILLTTRDKSVTDSVMGPKYVVPVESSLGKEKGLEILSLFVNMKKADLPEQAHSIIKECKGSPLVVSLIGALLRDFPNRWEYYLKQLQNKQFKRIRKSSSYDYEALDEAMSISVEMLREDIKDYYTDLSILQKDVKVPTKVLCILWDMETEEVEDILQEFVNKSLLFCDRNGKSFRYYLHDLQVDFLTEKNCSQLQDLHKKIITQFQRYHQPHTLSPDQEDCMYWYNFLAYHMASAKMHKELCALMFSLDWIKAKTELVGPAHLIHEFVEYRHILDEKDCAVSENFQEFLSLNGHLLGRQPFPNIVQLGLCEPETSEVYQQAKLQAKQEVDNGMLYLEWINKKNITNLSRLVVRPHTDAVYHACFSEDGQRIASCGADKTLQVFKAETGEKLLEIKAHEDEVLCCAFSTDDRFIATCSVDKKVKIWNSMTGELVHTYDEHSEQVNCCHFTNSSHHLLLATGSSDCFLKLWDLNQKECRNTMFGHTNSVNHCRFSPDDKLLASCSADGTLKLWDATSANERKSINVKQFFLNLEDPQEDMEVIVKCCSWSADGARIMVAAKNKIFLFDIHTSGLLGEIHTGHHSTIQYCDFSPQNHLAVVALSQYCVELWNTDSRSKVADCRGHLSWVHGVMFSPDGSSFLTSSDDQTIRLWETKKVCKNSAVMLKQEVDVVFQENEVMVLAVDHIRRLQLINGRTGQIDYLTEAQVSCCCLSPHLQYIAFGDENGAIEILELVNNRIFQSRFQHKKTVWHIQFTADEKTLISSSDDAEIQVWNWQLDKCIFLRGHQETVKDFRLLKNSRLLSWSFDGTVKVWNIITGNKEKDFVCHQGTVLSCDISHDATKFSSTSADKTAKIWSFDLLLPLHELRGHNGCVRCSAFSVDSTLLATGDDNGEIRIWNVSNGELLHLCAPLSEEGAATHGGWVTDLCFSPDGKMLISAGGYIKWWNVVTGESSQTFYTNGTNLKKIHVSPDFKTYVTVDNLGILYILQTLE
[4]
  EC50 of cytochrome c for split luciferase activity: 0.15 µM
